Results reported in publication PMC6437697 (Journal of Medicinal Chemistry, 2019).

Tests used:
Assay in all cases: KINOMEscan
Type in all cases: binding
FGFR2 = target: T1, FGFR2 (Homo sapiens, UniProt P21802); conditions: read-out: % control activity remaining
T1 construct: purchased Eurofins DiscoverX KINOMEscan

WNK1 = target: T2, WNK1 (Homo sapiens, UniProt Q9H4A3); conditions: read-out: % control activity remaining
T2 construct: purchased Eurofins DiscoverX KINOMEscan

MLK3 = target: T3, MLK3 (Homo sapiens, UniProt Q16584); conditions: read-out: % control activity remaining
T3 construct: purchased Eurofins DiscoverX KINOMEscan
T3 sequence (Q16584 whole entry): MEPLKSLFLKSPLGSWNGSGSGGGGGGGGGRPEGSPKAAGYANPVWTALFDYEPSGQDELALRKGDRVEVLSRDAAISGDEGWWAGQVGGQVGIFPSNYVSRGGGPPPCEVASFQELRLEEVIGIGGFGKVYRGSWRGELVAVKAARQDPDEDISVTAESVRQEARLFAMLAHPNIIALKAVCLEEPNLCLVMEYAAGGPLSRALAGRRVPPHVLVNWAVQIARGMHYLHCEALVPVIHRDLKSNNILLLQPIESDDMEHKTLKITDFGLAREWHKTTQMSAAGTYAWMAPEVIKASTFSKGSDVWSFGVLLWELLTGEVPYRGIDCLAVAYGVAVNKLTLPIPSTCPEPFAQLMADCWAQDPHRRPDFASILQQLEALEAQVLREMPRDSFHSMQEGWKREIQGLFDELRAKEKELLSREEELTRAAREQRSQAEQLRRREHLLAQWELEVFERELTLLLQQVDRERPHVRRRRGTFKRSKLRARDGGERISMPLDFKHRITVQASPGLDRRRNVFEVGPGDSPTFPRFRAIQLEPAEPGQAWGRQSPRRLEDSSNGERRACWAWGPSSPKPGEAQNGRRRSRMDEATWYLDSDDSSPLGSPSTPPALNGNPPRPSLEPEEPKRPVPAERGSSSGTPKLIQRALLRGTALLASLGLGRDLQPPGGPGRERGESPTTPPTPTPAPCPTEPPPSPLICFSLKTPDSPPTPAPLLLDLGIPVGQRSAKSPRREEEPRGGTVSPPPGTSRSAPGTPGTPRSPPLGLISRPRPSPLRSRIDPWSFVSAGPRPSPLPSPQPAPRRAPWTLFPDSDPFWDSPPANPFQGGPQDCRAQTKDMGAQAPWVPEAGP

SIK = target: T4, SIK (Homo sapiens, UniProt P57059); conditions: read-out: % control activity remaining
T4 construct: purchased Eurofins DiscoverX KINOMEscan

PDGFRB = target: T5, PDGFRB (Homo sapiens, UniProt P09619); conditions: for remaining binding at 1 µM: read-out: % control activity remaining
T5 construct: purchased Eurofins DiscoverX KINOMEscan
T5 sequence (P09619 33-1106): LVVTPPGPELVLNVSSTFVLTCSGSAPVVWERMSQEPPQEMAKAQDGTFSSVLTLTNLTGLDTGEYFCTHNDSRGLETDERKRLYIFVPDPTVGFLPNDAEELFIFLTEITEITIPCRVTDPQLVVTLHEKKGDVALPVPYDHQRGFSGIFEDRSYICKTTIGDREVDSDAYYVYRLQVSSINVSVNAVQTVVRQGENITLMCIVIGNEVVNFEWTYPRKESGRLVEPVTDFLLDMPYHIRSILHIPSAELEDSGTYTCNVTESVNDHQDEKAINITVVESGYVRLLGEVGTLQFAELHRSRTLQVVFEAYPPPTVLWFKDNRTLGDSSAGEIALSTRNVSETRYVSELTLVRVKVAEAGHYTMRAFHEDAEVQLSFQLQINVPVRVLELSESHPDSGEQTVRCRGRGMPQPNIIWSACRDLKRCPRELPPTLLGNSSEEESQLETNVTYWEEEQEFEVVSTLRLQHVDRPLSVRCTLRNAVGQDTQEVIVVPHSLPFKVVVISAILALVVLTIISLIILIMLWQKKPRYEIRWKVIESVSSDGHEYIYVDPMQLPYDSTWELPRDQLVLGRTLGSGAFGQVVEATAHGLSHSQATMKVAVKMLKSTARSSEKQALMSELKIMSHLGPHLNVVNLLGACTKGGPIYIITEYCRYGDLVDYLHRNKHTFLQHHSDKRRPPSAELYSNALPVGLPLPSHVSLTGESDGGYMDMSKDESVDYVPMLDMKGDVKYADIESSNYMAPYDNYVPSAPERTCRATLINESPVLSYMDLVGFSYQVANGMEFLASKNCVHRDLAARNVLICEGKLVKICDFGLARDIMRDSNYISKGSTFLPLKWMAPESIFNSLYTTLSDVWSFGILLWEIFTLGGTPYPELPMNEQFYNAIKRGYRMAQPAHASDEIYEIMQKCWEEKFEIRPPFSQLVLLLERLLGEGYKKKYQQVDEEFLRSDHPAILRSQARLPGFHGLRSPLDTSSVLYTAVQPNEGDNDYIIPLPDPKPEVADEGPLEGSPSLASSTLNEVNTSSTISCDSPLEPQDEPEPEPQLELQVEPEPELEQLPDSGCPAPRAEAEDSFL

KIT(V559D,V654A) = target: T6, KIT(V559D,V654A) (Homo sapiens, UniProt P10721, V559D/V654A); conditions: read-out: % control activity remaining
T6 construct: purchased Eurofins DiscoverX KINOMEscan

LATS2 = target: T7, LATS2 (Homo sapiens, UniProt Q9NRM7); conditions: read-out: % control activity remaining
T7 construct: purchased Eurofins DiscoverX KINOMEscan
T7 sequence (Q9NRM7 1-1088): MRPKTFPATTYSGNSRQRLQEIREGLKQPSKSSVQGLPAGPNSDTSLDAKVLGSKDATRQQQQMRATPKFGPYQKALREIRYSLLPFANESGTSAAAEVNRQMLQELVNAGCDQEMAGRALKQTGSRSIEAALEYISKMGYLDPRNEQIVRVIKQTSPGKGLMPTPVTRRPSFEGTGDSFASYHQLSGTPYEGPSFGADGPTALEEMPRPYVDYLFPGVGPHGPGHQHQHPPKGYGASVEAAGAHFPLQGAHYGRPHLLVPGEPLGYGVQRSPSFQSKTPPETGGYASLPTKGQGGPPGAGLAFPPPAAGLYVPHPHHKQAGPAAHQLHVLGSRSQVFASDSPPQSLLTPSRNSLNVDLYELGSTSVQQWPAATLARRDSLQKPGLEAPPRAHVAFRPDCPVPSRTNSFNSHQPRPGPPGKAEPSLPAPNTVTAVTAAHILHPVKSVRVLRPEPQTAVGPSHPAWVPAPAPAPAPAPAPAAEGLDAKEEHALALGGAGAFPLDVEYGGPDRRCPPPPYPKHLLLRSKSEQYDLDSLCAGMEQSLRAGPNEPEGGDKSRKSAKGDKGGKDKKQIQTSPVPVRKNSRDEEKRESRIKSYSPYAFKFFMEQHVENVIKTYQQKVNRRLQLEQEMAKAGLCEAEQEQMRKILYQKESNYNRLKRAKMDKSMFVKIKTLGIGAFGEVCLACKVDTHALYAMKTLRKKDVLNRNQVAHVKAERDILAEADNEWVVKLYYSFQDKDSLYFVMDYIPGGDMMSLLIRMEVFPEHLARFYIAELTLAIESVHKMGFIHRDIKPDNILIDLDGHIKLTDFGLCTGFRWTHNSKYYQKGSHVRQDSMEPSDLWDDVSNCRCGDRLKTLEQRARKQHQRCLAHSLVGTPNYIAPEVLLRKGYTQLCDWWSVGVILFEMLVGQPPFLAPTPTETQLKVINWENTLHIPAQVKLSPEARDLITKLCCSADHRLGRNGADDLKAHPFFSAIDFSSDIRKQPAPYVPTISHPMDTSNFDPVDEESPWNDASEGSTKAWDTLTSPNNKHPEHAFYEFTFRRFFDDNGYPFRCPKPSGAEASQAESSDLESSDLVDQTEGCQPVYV

PDPK1 = target: T8, PDPK1 (Homo sapiens, UniProt O15530); conditions: read-out: % control activity remaining
T8 construct: purchased Eurofins DiscoverX KINOMEscan
T8 sequence (O15530 1-556): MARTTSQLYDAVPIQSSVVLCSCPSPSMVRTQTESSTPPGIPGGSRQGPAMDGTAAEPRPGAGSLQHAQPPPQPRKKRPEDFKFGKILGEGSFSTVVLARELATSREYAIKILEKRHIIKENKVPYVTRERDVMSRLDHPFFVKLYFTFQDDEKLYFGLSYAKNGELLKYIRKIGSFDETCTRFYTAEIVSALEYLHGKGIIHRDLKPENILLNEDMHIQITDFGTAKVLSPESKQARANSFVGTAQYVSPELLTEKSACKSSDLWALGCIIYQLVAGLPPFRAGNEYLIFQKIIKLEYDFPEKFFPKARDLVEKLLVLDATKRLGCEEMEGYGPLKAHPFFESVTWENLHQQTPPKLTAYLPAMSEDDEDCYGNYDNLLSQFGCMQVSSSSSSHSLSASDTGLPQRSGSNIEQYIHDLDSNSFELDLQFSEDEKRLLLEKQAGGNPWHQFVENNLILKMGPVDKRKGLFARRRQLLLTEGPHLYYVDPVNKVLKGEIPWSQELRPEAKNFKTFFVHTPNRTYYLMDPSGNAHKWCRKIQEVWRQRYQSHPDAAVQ

T1 sequence (P21802 22-821): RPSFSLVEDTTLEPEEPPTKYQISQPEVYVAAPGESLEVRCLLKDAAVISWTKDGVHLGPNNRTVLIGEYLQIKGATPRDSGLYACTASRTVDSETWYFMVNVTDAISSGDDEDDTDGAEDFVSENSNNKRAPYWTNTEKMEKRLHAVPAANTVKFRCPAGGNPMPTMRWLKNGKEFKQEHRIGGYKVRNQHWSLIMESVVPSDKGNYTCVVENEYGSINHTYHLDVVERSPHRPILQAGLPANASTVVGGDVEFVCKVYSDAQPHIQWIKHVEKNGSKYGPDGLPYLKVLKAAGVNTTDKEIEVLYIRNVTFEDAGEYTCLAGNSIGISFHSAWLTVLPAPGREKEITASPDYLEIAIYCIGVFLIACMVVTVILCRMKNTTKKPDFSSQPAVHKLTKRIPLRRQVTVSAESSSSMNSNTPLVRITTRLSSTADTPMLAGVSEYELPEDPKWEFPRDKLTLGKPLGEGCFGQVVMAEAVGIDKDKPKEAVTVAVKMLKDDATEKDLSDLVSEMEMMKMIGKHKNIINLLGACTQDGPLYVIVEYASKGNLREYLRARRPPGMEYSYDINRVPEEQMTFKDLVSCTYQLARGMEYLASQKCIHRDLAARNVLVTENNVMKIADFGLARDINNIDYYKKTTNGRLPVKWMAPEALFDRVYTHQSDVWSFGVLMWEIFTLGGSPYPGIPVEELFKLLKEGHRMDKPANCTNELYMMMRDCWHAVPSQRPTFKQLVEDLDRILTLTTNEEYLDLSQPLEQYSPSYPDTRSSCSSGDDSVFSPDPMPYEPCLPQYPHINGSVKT
T2 sequence (Q9H4A3 whole entry): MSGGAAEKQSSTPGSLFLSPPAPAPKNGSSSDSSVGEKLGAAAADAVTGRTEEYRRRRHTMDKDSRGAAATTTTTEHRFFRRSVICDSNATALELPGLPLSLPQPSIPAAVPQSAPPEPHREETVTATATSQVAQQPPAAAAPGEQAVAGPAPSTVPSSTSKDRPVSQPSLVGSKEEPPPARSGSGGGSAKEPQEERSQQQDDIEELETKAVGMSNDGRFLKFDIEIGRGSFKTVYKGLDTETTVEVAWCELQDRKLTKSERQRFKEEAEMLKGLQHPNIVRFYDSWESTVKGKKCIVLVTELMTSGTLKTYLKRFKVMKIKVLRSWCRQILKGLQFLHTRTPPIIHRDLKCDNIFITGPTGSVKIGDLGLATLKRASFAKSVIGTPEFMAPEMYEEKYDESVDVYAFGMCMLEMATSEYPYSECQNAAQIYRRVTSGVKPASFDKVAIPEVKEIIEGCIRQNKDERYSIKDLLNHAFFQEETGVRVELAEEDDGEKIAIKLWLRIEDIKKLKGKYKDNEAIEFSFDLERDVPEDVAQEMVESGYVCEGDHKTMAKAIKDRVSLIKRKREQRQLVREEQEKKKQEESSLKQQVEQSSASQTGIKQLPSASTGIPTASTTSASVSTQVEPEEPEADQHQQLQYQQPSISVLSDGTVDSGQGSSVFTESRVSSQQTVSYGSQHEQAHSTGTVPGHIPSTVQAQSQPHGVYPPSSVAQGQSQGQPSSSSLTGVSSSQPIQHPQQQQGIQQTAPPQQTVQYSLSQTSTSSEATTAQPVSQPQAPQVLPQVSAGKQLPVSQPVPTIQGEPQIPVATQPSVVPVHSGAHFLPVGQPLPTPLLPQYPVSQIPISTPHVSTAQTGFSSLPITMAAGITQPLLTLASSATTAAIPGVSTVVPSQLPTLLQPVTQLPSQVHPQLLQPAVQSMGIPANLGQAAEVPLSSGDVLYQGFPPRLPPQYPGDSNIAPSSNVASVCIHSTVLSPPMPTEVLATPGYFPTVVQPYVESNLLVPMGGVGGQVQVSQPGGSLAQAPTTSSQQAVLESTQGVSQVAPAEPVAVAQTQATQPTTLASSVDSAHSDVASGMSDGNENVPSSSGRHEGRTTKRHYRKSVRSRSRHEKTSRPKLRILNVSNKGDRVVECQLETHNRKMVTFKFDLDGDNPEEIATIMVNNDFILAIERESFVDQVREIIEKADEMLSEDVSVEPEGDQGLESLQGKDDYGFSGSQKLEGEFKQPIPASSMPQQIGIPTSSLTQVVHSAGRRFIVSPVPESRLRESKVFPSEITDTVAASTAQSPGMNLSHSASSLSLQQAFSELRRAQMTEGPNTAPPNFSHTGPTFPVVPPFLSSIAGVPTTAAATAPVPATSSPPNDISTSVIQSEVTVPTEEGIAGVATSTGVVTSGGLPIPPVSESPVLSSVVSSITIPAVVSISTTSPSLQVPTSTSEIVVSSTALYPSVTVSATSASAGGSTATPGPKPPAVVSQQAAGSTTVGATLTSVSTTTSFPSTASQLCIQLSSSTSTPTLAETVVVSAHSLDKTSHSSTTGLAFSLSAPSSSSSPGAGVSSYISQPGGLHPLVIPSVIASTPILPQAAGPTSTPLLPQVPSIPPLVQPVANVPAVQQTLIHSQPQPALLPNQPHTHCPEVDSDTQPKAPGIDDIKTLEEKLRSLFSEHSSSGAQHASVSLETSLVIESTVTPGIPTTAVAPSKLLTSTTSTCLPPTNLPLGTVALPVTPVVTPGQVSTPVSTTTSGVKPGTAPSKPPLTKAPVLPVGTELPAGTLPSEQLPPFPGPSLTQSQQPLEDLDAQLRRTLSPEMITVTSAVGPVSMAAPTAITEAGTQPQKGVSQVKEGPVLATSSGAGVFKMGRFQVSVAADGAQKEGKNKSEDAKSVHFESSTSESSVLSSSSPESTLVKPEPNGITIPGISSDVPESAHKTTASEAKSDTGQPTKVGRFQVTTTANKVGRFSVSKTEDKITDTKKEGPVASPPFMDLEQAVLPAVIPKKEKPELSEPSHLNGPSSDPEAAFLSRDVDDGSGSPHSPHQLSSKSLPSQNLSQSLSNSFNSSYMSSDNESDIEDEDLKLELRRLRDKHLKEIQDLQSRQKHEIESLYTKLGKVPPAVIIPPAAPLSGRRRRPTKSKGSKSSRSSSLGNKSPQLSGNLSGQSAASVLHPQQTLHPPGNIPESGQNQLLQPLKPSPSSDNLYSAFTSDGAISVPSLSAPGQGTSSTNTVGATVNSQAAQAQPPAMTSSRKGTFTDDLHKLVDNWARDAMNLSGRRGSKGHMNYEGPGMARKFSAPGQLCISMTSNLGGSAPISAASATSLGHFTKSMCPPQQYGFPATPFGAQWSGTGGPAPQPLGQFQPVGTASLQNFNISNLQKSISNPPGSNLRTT

SMILES	remaining binding at 1 µM (FGFR2)	remaining binding at 1 µM (WNK1)	remaining binding at 1 µM (MLK3)	remaining binding at 1 µM (SIK)	remaining binding at 1 µM (PDGFRB)	remaining binding at 1 µM (KIT(V559D,V654A))	remaining binding at 1 µM (LATS2)	remaining binding at 1 µM (PDPK1)	inhibition at 1 µM (PDGFRB; read-out: Probe binding inhibited)
Clc1cc(NCC2CC2)c2ncc(-c3ccc4[nH]ncc4c3)n2n1 [compound 2, 6-Chloro-N-(cyclopropylmethyl)-3-(1H-indazol-5-yl)imidazo[1,2-b]pyridazin-8-amine]	85%	89%	100%	98%	1.3%	7.8%	58%	88%	
O=C(CN1CCOCC1)N[C@H]1CC[C@H](Nc2cc(Cl)nn3c(-c4ccc5[nH]ncc5c4)cnc23)CC1 [compound 26]	91%	100%	100%	89%	0.05%	0.7%	73%	100%	> 90%
CN1CCC(CNc2cc(Cl)nn3c(-c4cc5nc(Nc6ccccc6)[nH]c5cc4F)cnc23)CC1 [compound 31, 6-Chloro-3-(6-fluoro-2-(phenylamino)-1H-benzo[d]imidazol-5-yl)-N-((1-methylpiperidin-4-yl)methyl)imidazo[1,2-b]pyridazin-8-amine]	84%	76%	81%	91%	56%	27%	94%	100%	
